Source: patent publication US20230137092A1, “Composition and Method for the Treatment and Prevention of Cardiac, Pulmonary, Dermal, and Renal Fibrosis” (EMERALD HEALTH PHARMACEUTICALS INC., priority 2020, published 2023)

Key:
[1] = test system: E2F pathway; assay: RNA-Seq of myocardial tissue with GSEA of MSigDb hallmarks, Ang II preventive model; type: in vivo, mouse; conditions: cardiac RNA; Ang II-challenged mice; n=3 each group
Experimental: RNA seq analysis from RNA extracted of myocardial tissue was performed. Transcriptome libraries were constructed with TruSeq Illumina TruSeq mRNA Sample Prep v2 kit (#RS-122-2001). In brief, 300 ng of RNA from each sample was used to construct a cDNA library, followed by sequencing on the Illumina Hiseq 2500 with single end 50 bp reads and ˜30 million reads per sample.
RNA-Seq reads were pre-processed with fastp (v0.20.0) and aligned to mouse genome assembly grcm38 using HISAT2 (v2.1.0). Then, counts per gene were obtained with featureCounts (v1.6.1) and normalization and differential expression analyses were carried out using edgeR (v3.26.8), excluding those genes with less than 15 counts across all samples. Finally, the functional analysis was performed using the functional categories defined by MSigDb hallmarks for Mus musculus (V7.0) and the clusterProfiler package (v3.12.0).
The results confirmed the hallmarks that were enriched in the Ang II group versus control group were pathways related to fibrotic response; this was the case of IFN-α and IFN-γ response, TNF-α signaling via NF-KB, Epithelial Mesenchymal Transition and inflammatory responses, including IL6 JAK STAT Signaling (FIG. 6). The results were obtained after carrying out the functional analysis of the transcriptomic signatures in heart tissue. […]

[2] = test system: Ang II-induced aortic fibrosis; assay: Ang II therapeutic model: aorta adventitial collagen, Sirius red; type: in vivo, mouse; conditions: Ang II four weeks, 20 mg/kg oral last two weeks, ###p<0.001 versus Ang II group
Experimental: (§1) For the therapeutic model, infusion of Ang II for four weeks and the compound of Formula (VIII) (20 mg/kg) was administrated after two weeks of pump implantation. Subcutaneous infusion of Ang II using ALZET osmotic minipumps was used to study the preventive effects of the compound ALZET® osmotic minipumps (Model #2004, Charles Rives, Barcelona, Spain) delivering of Ang II (500 ng kg^−1 min^−1) (Sigma-Aldrich, Madrid, Spain) for four weeks. Compound treatment was daily administered in parallel, two weeks after the implantation of the subcutaneous pump, beneath the midscapular loose skin and consisted of daily oral gavage of compound of Formula (VIII) (20 mg/kg) or vehicle (Corn Oil/Maisine CC, 1/1). Mice were acclimated to manipulators for a week previously to the experiments in order to reduce stress and allow the detection of subtle changes in behavior by researchers. […] Neither piloerection nor hunched appearances were appreciated during the experimental procedures. Mice were sacrificed by cervical dislocation and the heart, aorta, kidney, and lung were removed and processed for histological examination or were frozen for further analysis.

[3] = test system: Ang II-induced pulmonary fibrosis; assay: Ang II therapeutic model: lung fibrosis, Masson's trichrome, Ashcroft score; type: in vivo, mouse; conditions: Ang II four weeks, 20 mg/kg oral last two weeks, ###p<0.001 versus Ang II group
Experimental: Lung fibrosis was induced in mice by infusion of Ang II (500 ng kg^− min^−) for four weeks. The treatment with the compound of Formula (VIII) by oral gavage was the same as describe in Example 9. After two weeks of treatment, the mice were sacrificed under ether anesthesia. Lung samples were collected and fixed in 4% paraformaldehyde and embedded in paraffin. The paraffin sections (5 μm) were stained with Masson's trichrome (Merck Millipore, Darmstadt, Germany) for evaluation of fibrosis. Three-four random fields of each lung biopsy were photographed, digitalized using a Leica DFC420c camera and analyzed using Image J software in a blinded manner by two independent observers. The Ashcroft score was used to determine the degree of fibrosis in lung specimens as previously described (Ashcroft T et al., 1988, Clin. Pathol., 41:467-470; Hubner R H et al., 2008, Biotechniques, 44:507-511). Subcutaneous Ang II infusion induced pulmonary fibrosis which is prevented with compound (FIG. 15).

[4] = test system: human immortalized cardiac fibroblasts (hICF); assay: Fibroblast differentiation into myofibroblasts: α-SMA expression in hICF; type: cell-based; conditions: hICF treated with TGF-β or Ang II; pretreatment with compound
Source text: The profibrotic activity of Ang II on cardiac fibroblasts in vitro and in vivo has been extensively documented (H. H. Sigusch et al., 1996, Cardiovasc Res, 31:546-554). To study myofibroblast differentiation in vitro, immortalized cardiac fibroblasts (hICF) were stained with for α-SMA expression, a specific marker for myofibroblasts differentiation. Immortalized primary human cardiac fibroblasts (hICF) with SV40 Large T antigen were obtained from Innoprot SL (Derio, Spain) and cultured in low passages (<5 passages). The cells were maintained in a humidified atmosphere at 37° C. containing 5% CO2, 10% fetal bovine serum (FBS) and 1% (v/v) penicillin/streptomycin in Fibroblast Medium-2 (P60108-2, Innoprot, Derio, Spain). Ang II was purchased from Sigma-Aldrich Co (A9525, Sigma, Madrid, Spain) and TGFb1 (Transforming Growth Factor-b)-1 (10 ng/mL) was obtained from ImmunoTools GmbH (Friesoythe, Germany). Both TGF-β and Ang II induced α-SMA protein expression in cultured hICF and pretreatment with compound of Formula (VIII) decreased α-SMA expression. The differentiation to myofibroblast was associated with morphological changes of cellular hypertrophy.

[5] = test system: hICF cells; assay: Real-time PCR of IL1b, IL6, Col1A2 and CCL2 mRNA in hICF; type: cell-based, human; conditions: induced by Ang II or TGFb in hICF cells
Experimental: hICF (5×10^4 cells/cm^2) were preincubated with Compound of Formula (VIII), stimulated with Ang II for either 2 hours or 24 hours and total RNA was extracted using High Pure Isolation Kit (Roche Diagnostic, Switzerland). Total RNA (1 μg) was retrotranscribed using the iScript™ cDNA Synthesis Kit (Bio-Rad) and the cDNA analyzed using a CFX96 Real-Time PCR Detection System (Bio-Rad) by real-time PCR using the iQ™ SYBR Green Supermix (Bio-Rad). Human HPRT was used for in vitro studies to standardize the mRNA expression levels in each sample. Expression levels were calculated using the 2-ΔΔCt method. Compound of Formula (VIII) inhibited the mRNA expression of IL1b, IL6, Col1A2 and CCL2, induced by Ang II or TGFb in hICF cells (FIG. 17).

[6] = Weight and behaviour observation during the therapeutic Ang II protocol; type: in vivo, mouse; conditions: 20 mg/kg daily oral gavage
Experimental: as §1

C=C(C)C1CCC(C)=C[C@H]1C1=C(O)C(=O)C(CCCCC)=C(NCc2ccccc2)C1=O (stereo partly shown) [Formula (VIII)]
expression of a set of genes of E2F pathway (RNA-Seq) [1]: clearly downregulated
aorta collagen content in adventitial layer [2]: antifibrotic activity
lung fibrosis (Ashcroft score) [3]: reduced
α-SMA expression [4]: decreased
CCL2 mRNA expression [5]: inhibited
Col1A2 mRNA expression [5]: inhibited
IL1b mRNA expression [5]: inhibited
IL6 mRNA expression [5]: inhibited
behavioral changes [6]: No behavioral changes
mice weight ([6]; between experimental groups): no significant changes
